The text below walks through data of patent US6685935B1 (priority 1995, dated 2004).

The test system of one series is C57B6 mice. The conditions noted are these: mouse, in vivo, ip.
The subject of series [1] is B16F10 melanoma in C57B6 mice. Format: in vivo, mouse. How it is done: C57B6 mice were inoculated s.c., left shoulder region, with […] B16F10 melanoma cells from culture. […] At 18 days post-tumor implantation (10 days post bacterial inoculation) all animals were given enrofloxacin antibiotic, 0.2 mg/ml, in their drinking water (BAYTRIL™) and maintained with this antibiotic supplement for 2 weeks. Tumor growth was assessed by caliper measurements and computed as volume in mm^3. Animals were euthanized and listed as dead when the sum of their tumor measurements, length+width+height, reached 60 mm, or when they became moribund (listless, cessation of drinking).
C57B6 female mice, 5-7 weeks old, were inoculated s.c. in the left shoulder region with 5×10^5 B16F10 melanoma cells grown in culture. […] Tumor growth was assessed with periodic caliper measurements of tumor length, width and height, and computed as tumor volume in mm^3. Results of tumor growth, shown in FIGS. 16A-D represent the averages±SD for 5 animals/group with 5/5 animals surviving. After the point at which one or more animals died within a group, the average tumor sizes of the surviving animals were no longer shown when the data were plotted as shown in FIGS. 16A-D.
The animals were allowed to eat and drink ad libitum. Twenty-three days (Experiment #1) or 10 days (Experiment #2) following inoculation of bacteria, both control and bacteria treated mice were given Baytril™ (enrofloxacin, 0.2 mg/ml drinking water) and maintained on this antibiotic for a total of 2 weeks. In Experiment #1 the times at which the mice became moribund (listless, cessation of drinking) or died, were noted. The results are presented in Table 20(F) as the average survival±SD for the conditions tested. In Experiment #2 animals were sacrificed when the tumor reached 4 g and listed with the other dead as described in Experiment #1. The two different methods for assessing survival accounted for a somewhat shorter survival time for control animals in Experiment #2 (26 days) as compared to Experiment #1 (28 days).

Series [2] concerns Cloudman S91 melanoma/macrophage hybrid #48 tumors in DBA/2J mice.
The subject of a further series is B16F10 melanoma cells. Format: cell-based, mouse. How it is done: FIG. 11-F is a graph showing the growth of B16F10 melanoma cells in monolayer culture in the presence or absence of ganciclovir at 10 μg/ml or 25 μg/ml.

Structures are written as SMILES. Read-outs that look alike come from different tables or passages of the source. Bounds are passed on as bounds.

As for `CCN1CCN(c2cc3c(cc2F)c(=O)c(C(=O)O)cn3C2CC2)CC1` [enrofloxacin, 1-cyclopropyl-7-(4-ethyl-1-piperazinyl)-6-fluoro-1,4-dihydro-4-oxo-3-quinolinecarboxylic acid], the “Avg. time of Death ± S.D.” value in the series on C57B6 mice is >21 days.

For `Nc1nc(O)c2ncn(COC(CO)CO)c2n1` [ganciclovir, ganciclovir sodium], the “Time Days ± S.D.” value in series [1] (GCV 3.75 mg, no bacteria) amounted to 27 ± 1 days. For the same compound, the “Treated/Control T/C” value in series [1] (GCV 3.75 mg, no bacteria) came to 1.1. In addition, in series [1] (GCV 3.75 mg-10 mg/mouse days 11-12, no bacteria), the “effect on tumor volume” value is “small reduction in tumor volume”. The “side-effects of ganciclovir treatment” value in series [2] (2.5 mg i.p. four times over 3 days, no bacteria) was “little or no side-effects”. For the same compound, the “Mean Tumor Doubling Time” value in series [2] (3×10^5 c.f.u. bacteria i.p., ganciclovir 2.0 mg, 6 inoculations over 5 days) was found to be 94 h. The figures for the “proliferation of B16F10 melanoma cells in culture” value in the series with B16F10 melanoma cells (GCV 10 μg/ml) and in the series with B16F10 melanoma cells (GCV 25 μg/ml) were “not” and “significantly suppressed”, respectively.
